# Several values for one entry are separate records, joined by “and”; a condition that tells them apart may be missing. Equal entries are not always repeated.
# Species: Rattus norvegicus
# Assay: Open TG-GATES - Regimen: Single
# Assay type: toxicity, organism-based, Sprague-Dawley
# Design: regimen Single, gender Male, age 6 weeks
# Conditions: in vivo, po, 0 mg/kg, route gavage, dose level Control; for APTT / Bas / Eos / Fbg / Hb / Ht / Lym / MCH / MCHC / MCV / Mono / Neu / PT / Plat / RBC / Ret / WBC: tissue Blood; for KIDNEY_L / KIDNEY_R / KIDNEY_TOTAL: tissue Kidney; for LIVER: tissue Liver; for A/G / ALP / ALT / AST / BUN / CRE / Ca / Cl / GLC / IP / K / LDH / Na / PL / RALB / TBIL / TC / TG / TP / gamma-GTP / DBIL: tissue Plasma
smiles,measurement,setting,value
COc1ccc2c(c1)c(CC(=O)O)c(C)n2C(=O)c1ccc(Cl)cc1 [INDOMETHACIN],TERMINAL_BW,3 h,201 g and 226.5 g
same,APTT,3 h,16.8 s and 19.8 s
same,Bas,3 h,0% and 0.2%
same,Eos,3 h,0.6% and 1%
same,Fbg,3 h,201.6 mg/dL and 227.8 mg/dL
same,Hb,3 h,13.6 g/dL and 13.9 g/dL
same,Ht,3 h,40.8% and 38.7%
same,Lym,3 h,80% and 80.4%
same,MCH,3 h,21.9 pg and 22.5 pg
same,MCHC,3 h,33.2% and 35.9%
same,MCV,3 h,66 fL and 62.6 fL
same,Mono,3 h,10.2% and 2.4%
same,Neu,3 h,9.6% and 15%
same,PT,3 h,12.8 s and 11.9 s
same,Plat,3 h,109 x10_4/uL and 118.1 x10_4/uL
same,RBC,3 h,618.8 x10_4/ul
same,Ret,3 h,10.2% and 7.9%
same,WBC,3 h,108.5 x10_2/uL and 100.3 x10_2/uL
same,KIDNEY_L,3 h,0.9 g and 1 g
same,KIDNEY_R,3 h,0.9 g and 1 g
same,KIDNEY_TOTAL,3 h,1.8 g and 2 g
same,LIVER,3 h,9.4 g and 10 g
same,A/G,3 h,1.6 and 1.8
same,ALP,3 h,1191.4 IU/L and 1059 IU/L
same,ALT,3 h,39 IU/L and 32.2 IU/L
same,AST,3 h,69.6 IU/L and 71.8 IU/L
same,BUN,3 h,12.2 mg/dL and 11.8 mg/dL
same,CRE,3 h,0.5 mg/dL and 0.4 mg/dL
same,Ca,3 h,10.6 mg/dL and 10.7 mg/dL
same,Cl,3 h,105.6 meq/L and 103 meq/L
same,GLC,3 h,194.4 mg/dL and 209.4 mg/dL
same,IP,3 h,10 mg/dL and 9.2 mg/dL
same,K,3 h,5.1 meq/L and 4.1 meq/L
same,LDH,3 h,104.8 IU/L and 217.4 IU/L
same,Na,3 h,137.8 meq/L and 141 meq/L
same,PL,3 h,129.4 mg/dL and 135 mg/dL
same,RALB,3 h,3.8 g/dL and 3.4 g/dL
same,TBIL,3 h,0.3 mg/dL and 0.1 mg/dL
same,TC,3 h,74.8 mg/dL and 73.8 mg/dL
same,TG,3 h,56.2 mg/dL and 67.4 mg/dL
same,TP,3 h,6.1 g/dL and 5.4 g/dL
same,gamma-GTP,3 h,1.2 IU/L
same,TERMINAL_BW,6 h,197.2 g and 224 g
same,APTT,6 h,17.5 s and 19.1 s
same,Bas,6 h,0%
same,Eos,6 h,0.8%
same,Fbg,6 h,209.2 mg/dL and 225.2 mg/dL
same,Hb,6 h,13.6 g/dL and 13.8 g/dL
same,Ht,6 h,41% and 38.1%
same,Lym,6 h,78.2% and 80%
same,MCH,6 h,21.9 pg and 22.3 pg
same,MCHC,6 h,33.1% and 36.4%
same,MCV,6 h,66.2 fL and 61.3 fL
same,Mono,6 h,6.8% and 2.8%
same,Neu,6 h,14.2% and 15%
same,PT,6 h,12.7 s and 12.2 s
same,Plat,6 h,104.7 x10_4/uL and 120.1 x10_4/uL
same,RBC,6 h,619.4 x10_4/ul and 621.8 x10_4/ul
same,Ret,6 h,9.3% and 7.9%
same,WBC,6 h,111.4 x10_2/uL and 85.5 x10_2/uL
same,KIDNEY_L,6 h,0.9 g
same,KIDNEY_R,6 h,0.9 g
same,KIDNEY_TOTAL,6 h,1.8 g and 1.9 g
same,LIVER,6 h,8.4 g and 9.5 g
same,A/G,6 h,1.7 and 1.6
same,ALP,6 h,1101.4 IU/L and 861.4 IU/L
same,ALT,6 h,34.2 IU/L and 31.6 IU/L
same,AST,6 h,68.4 IU/L and 67.8 IU/L
same,BUN,6 h,11.6 mg/dL and 9.6 mg/dL
same,CRE,6 h,0.5 mg/dL and 0.4 mg/dL
same,Ca,6 h,10.1 mg/dL and 10.8 mg/dL
same,Cl,6 h,106 meq/L and 102.8 meq/L
same,DBIL,6 h,0.032 mg/dL and 0.078 mg/dL
same,GLC,6 h,193.2 mg/dL and 193.8 mg/dL
same,IP,6 h,9.8 mg/dL and 9.4 mg/dL
same,K,6 h,4.8 meq/L and 4.1 meq/L
same,LDH,6 h,77.2 IU/L and 197.4 IU/L
same,Na,6 h,137.2 meq/L and 140.6 meq/L
same,PL,6 h,119.2 mg/dL and 136.4 mg/dL
same,RALB,6 h,3.8 g/dL and 3.4 g/dL
same,TBIL,6 h,0.3 mg/dL and 0.1 mg/dL
same,TC,6 h,69.2 mg/dL and 73.4 mg/dL
same,TG,6 h,39 mg/dL and 70.6 mg/dL
same,TP,6 h,6 g/dL and 5.5 g/dL
same,gamma-GTP,6 h,1.8 IU/L and 1 IU/L
same,TERMINAL_BW,9 h,196.5 g and 222.5 g
same,APTT,9 h,16.7 s and 17.7 s
same,Bas,9 h,0%
same,Eos,9 h,0.4% and 1%
same,Fbg,9 h,211.2 mg/dL and 229.6 mg/dL
same,Hb,9 h,13.2 g/dL and 13.5 g/dL
same,Ht,9 h,40% and 36.8%
same,Lym,9 h,82.8% and 78.6%
same,MCH,9 h,21.7 pg and 22.4 pg
same,MCHC,9 h,33.1% and 36.7%
same,MCV,9 h,65.6 fL and 61.1 fL
same,Mono,9 h,6.4% and 2.8%
same,Neu,9 h,10.2% and 16.6%
same,PT,9 h,12.5 s
same,Plat,9 h,100.8 x10_4/uL and 126.3 x10_4/uL
same,RBC,9 h,610 x10_4/ul and 603.4 x10_4/ul
same,Ret,9 h,10.2% and 8.2%
same,WBC,9 h,121.1 x10_2/uL and 84 x10_2/uL
same,KIDNEY_L,9 h,0.9 g and 1 g
same,KIDNEY_R,9 h,0.9 g and 1 g
same,KIDNEY_TOTAL,9 h,1.9 g
same,LIVER,9 h,8.1 g and 8.7 g
same,A/G,9 h,2.5 and 1.7
same,ALP,9 h,901.4 IU/L and 851.8 IU/L
same,ALT,9 h,33.8 IU/L and 28.6 IU/L
same,AST,9 h,68.8 IU/L and 64.8 IU/L
same,BUN,9 h,12.4 mg/dL and 9.6 mg/dL
same,CRE,9 h,0.5 mg/dL and 0.4 mg/dL
same,Ca,9 h,10.2 mg/dL and 10.5 mg/dL
same,Cl,9 h,107 meq/L and 104.2 meq/L
same,DBIL,9 h,0.042 mg/dL and 0.072 mg/dL
same,GLC,9 h,191 mg/dL and 209 mg/dL
same,IP,9 h,10.3 mg/dL
same,K,9 h,5.1 meq/L and 3.8 meq/L
same,LDH,9 h,98.8 IU/L and 189 IU/L
same,Na,9 h,138 meq/L and 142.4 meq/L
same,PL,9 h,137.6 mg/dL and 129.2 mg/dL
same,RALB,9 h,3.9 g/dL and 3.5 g/dL
same,TC,9 h,81 mg/dL and 72.4 mg/dL
same,TG,9 h,43.4 mg/dL and 45.8 mg/dL
same,TP,9 h,5.4 g/dL and 5.6 g/dL
same,gamma-GTP,9 h,2 IU/L and 1 IU/L
same,TERMINAL_BW,24 h,215.4 g and 240.9 g
same,APTT,24 h,16.7 s and 18.2 s
same,Bas,24 h,0% and 0.8%
same,Eos,24 h,1% and 0.6%
same,Fbg,24 h,218.4 mg/dL and 222.8 mg/dL
same,Hb,24 h,13.5 g/dL and 13.2 g/dL
same,Ht,24 h,41.1% and 38.2%
same,Lym,24 h,79% and 79.8%
same,MCH,24 h,21.6 pg and 21.5 pg
same,MCHC,24 h,33% and 34.4%
same,MCV,24 h,65.5 fL and 62.4 fL
same,Mono,24 h,10.4% and 2.6%
same,Neu,24 h,9.4% and 15.6%
same,PT,24 h,12.1 s and 11.5 s
same,Plat,24 h,95.4 x10_4/uL and 128.4 x10_4/uL
same,RBC,24 h,627.4 x10_4/ul and 612.4 x10_4/ul
same,Ret,24 h,9.1% and 6.5%
same,WBC,24 h,106.5 x10_2/uL and 112.4 x10_2/uL
same,KIDNEY_L,24 h,1 g
same,KIDNEY_R,24 h,1 g
same,KIDNEY_TOTAL,24 h,2 g
